Source: US8334262B2, “Cognitive function” (priority 2008, dated 2012)

Legend:
rats [1] = experiment: Novel taste learning, latent inhibition (LI) paradigm; type: in vivo, rat
Procedure: CTA was performed as described earlier (Rosenblum et al., (1993) Behavioral and Neural Biology 59, 49-56). Saccharin (0.1% w/v, sodium salt) or NaCl (0.3%) were used as the unfamiliar taste in training (i.e. the conditioned stimulus (CS)), and injection of LiCl (0.15 m, 2% body weight, i.p.) as the malaise-inducing agent (unconditioned stimulus (UCS)). At the beginning of the behavioral experiment, the rats were trained for 3 days to obtain their daily water ration once a day for 15 min from two pipettes each containing 10 mL of water. On the conditioning day, they were allowed to drink the saccharin solution instead of water from similar pipettes for 15 min, and 50 min later were injected with LiCl. Under these conditions, 2 days after training the conditioned rats preferred water to saccharin in a multiple choice test situation (three pipettes with 5 mL of saccharin each and three with 5 mL of water each), whereas non-conditioned rats preferred saccharin to water. The behavioural data are presented in terms of aversion index, defined as [mL water/(mL water+mL saccharin)] consumed in the test; 0.5 is a chance level, and the higher the aversion index, the more the rats prefer water to the conditioned taste. […]

rats [2] = experiment: Observation of side effects in rats injected with C-16; type: in vivo, rat
Procedure: Conditioned taste aversion and novel taste learning were enhanced.
(§1) C-16 was injected i.p. every day, 2 hr before odour maze training. There was 48 hr break between day 3 and 4 without training or injection.

eIF-2α = eIF-2α phosphorylation in hippocampal slices from mature rats (Western blot); type: cell-based, rat
Procedure: (§2) In order to test biochemically the ability of C-16 to reduce eIF-2α phosphorylation in the mature brain, C-16 was applied to hippocampal slices from mature rats substantially as described by Kaphzan et al. (2007) Journal of Neurochemistry 103, 388-399 but with modifications as set out below.
(§3) After decapitation the brain was immediately immersed in cold (4° C.) carboxygenated (95% O2, 5% CO2) Artificial Cerebro-Spinal Fluid (ACSF [in mM]: 124 NaCl, 5 KCl, 1.2 MgSO4, 1.2 NaH2PO4, 26 NaHCO3, 10 D-glucose, 2.4 CaCl), and after about 120s both hippocampi were dissected out in a plate filled with cold (4° C.) ACSF on ice. The hippocampi were put on a cooled stand of a Mcllwain tissue chopper TC752 (Campden Instruments Ltd, UK), cut into 400-μm slices, and then put back into a chamber filled with carboxygenated cold (4° C.) ACSF.
(§4) The slices were transferred to a holding chamber for about 20-30 min, to reach room temperature, and were then transferred to a six-chamber pharmacological instrument, designed to our specifications by Scientific Systems Design Company (Ontario, Canada). All of the slices tested in any one experiment (i.e., in all six chambers) were produced by the same procedure from the same rat. The hippocampal slices were heated to 32° C. and were kept in the chamber for 5 h before any pharmacological intervention. Each chamber contained four slices. The slices were perfused with heated and carboxygenated ACSF (with or without 50 μM C-16 (experimental and control groups respectively)) via a Model MP3 peristaltic pump (Gilson, France), at a rate of ˜2 mL min for 10 mins. The chamber space was carboxygenated and humidified. The chamber was an interface type, and the slices were placed upon a lens paper.
(§5) The slices were analysed occasionally for their viability using extracellular recordings of fEPSP in the CA1 region. […]
(§6) The time window of C-16 effect was analysed by Western blot using specific antibodies for phosphorylated and dephosphorylated forms of PKR and eIF-2α. […]

Sprague-Dawly male rats = experiment: Odour maze learning (olfactory discrimination, 4-arm radial maze); type: in vivo, rat; conditions: i.p. every day, 2 hr before training; day 3 & 6 p<0.05, n=4
Procedure: Subjects and apparatus: Age-matched young adult Sprague-Dawly male rats were used. Prior to training they were maintained on a 23.5 hr water-deprivation schedule, with food available ad libitum. Olfactory discrimination training protocol was performed daily on each trained and pseudo-trained rat in a 4-arm radial maze, as previously described (Cohen-Matsliah et al. (2007) Journal of Neuroscience 27, 12584-12589), with commercial odours that are regularly used in the cosmetics and food industry.
as §1
Training: Olfactory training consisted of 20 trials per day for each rat as previously described (Cohen-Matsliah et al. (2007)). In short, in each trial the rat had to choose between two odours (positive- and negative-cue) presented simultaneously. Rats designated to the trained group were rewarded upon choosing the positive cue. The criterion for learning was at least 80% positive-cue choices in the last 10 trials of a training day, as was previously used (Cohen-Matsliah et al. (2007)). Training for a new pair began only after training for the […] pair was completed for all rats.

rats [3] = experiment: Contextual fear conditioning (freezing); type: in vivo, rat; conditions: i.p. 2 hr before conditioning; tested 24 hours and 10 days later; p<0.05
Excerpt: The entire behavioural procedure took place in the same conditioning chamber containing floor grids and transparent Plexiglas walls. The context of the chamber served as a conditioned stimulus (CS). Rats were placed in the chamber for an approximately two minute adjustment before they were given a foot-shock (0.8 mA for 0.5 sec), which was delivered to the floor bars and served as the unconditioned stimulus (US). The CS-US pairings were given three times. The inter-trial interval was 90-120 seconds throughout. The video images are transferred to a computer (fear-conditioning experiments, control experiment, Dell OptiPlex GXpro) equipped with an analysis program (Image (http://rsb.info.nih.gov/nih-image)) and a macroprogram (P. Schmid, Behavioral Neurobiology Laboratory, Swiss Federal Institute of Technology Zurich). The percentage of changed pixels between two adjacent 1 s images from one of the test boxes was used as a measure of activity. Freezing is commonly identified as cessation of any movement except for respiratory movements. If the percentage of changed pixels between two adjacent 1 s images was <0.05%, this corresponded well to such immobility and the behavior of the rat was scored as “freezing” for the respective second.
C-16 was injected i.p. 2 hr before contextual fear condition. […]

rats [4] = experiment: Weak conditioned taste aversion (CTA); type: in vivo, rat
PKR [5] = molecular target: PKR (Homo sapiens, UniProt P19525); conditions: by inhibiting the ATP-binding site of PKR; cited from earlier work
Sequence of PKR (Homo sapiens, UniProt P19525) (P19525 whole entry): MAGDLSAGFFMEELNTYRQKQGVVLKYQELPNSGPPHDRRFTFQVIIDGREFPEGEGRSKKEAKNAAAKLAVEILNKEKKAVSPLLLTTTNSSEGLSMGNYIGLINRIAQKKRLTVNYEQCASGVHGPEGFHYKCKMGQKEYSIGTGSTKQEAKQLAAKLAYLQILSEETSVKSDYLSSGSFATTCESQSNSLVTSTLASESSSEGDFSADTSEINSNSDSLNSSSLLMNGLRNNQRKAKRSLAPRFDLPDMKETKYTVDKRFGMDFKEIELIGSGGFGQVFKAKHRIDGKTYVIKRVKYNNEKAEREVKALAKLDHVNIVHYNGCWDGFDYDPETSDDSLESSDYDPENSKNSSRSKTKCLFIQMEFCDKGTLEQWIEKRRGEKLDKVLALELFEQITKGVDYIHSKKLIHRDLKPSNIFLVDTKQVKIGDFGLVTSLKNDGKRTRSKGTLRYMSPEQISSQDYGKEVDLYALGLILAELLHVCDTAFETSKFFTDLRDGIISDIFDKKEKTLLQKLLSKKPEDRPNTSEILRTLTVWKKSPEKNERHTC

PKR [6] = molecular target: T1, PKR (Rattus norvegicus, UniProt Q63184); experiment: PKR phosphorylation in hippocampal slices from mature rats (Western blot); type: cell-based
T1 construct: from tissue; host or cells: rat hippocampal slices (400 µm)
T1 sequence (Q63184 1-513): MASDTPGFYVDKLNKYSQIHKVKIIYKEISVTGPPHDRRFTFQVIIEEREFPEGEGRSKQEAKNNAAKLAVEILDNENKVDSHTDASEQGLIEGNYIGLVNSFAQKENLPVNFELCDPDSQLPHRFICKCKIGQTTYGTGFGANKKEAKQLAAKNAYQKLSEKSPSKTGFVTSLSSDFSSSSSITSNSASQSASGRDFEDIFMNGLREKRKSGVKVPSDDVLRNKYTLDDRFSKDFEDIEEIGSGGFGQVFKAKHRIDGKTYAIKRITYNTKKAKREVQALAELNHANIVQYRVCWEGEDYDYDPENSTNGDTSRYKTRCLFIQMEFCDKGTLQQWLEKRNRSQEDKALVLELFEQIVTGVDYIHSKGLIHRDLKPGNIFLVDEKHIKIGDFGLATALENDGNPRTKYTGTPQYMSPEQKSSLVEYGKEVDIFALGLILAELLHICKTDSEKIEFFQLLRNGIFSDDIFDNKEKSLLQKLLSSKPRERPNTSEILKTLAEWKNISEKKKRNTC
Procedure: as §2, §3, §4, §5, §6

[7] = 50 μM C-16 perfused on hippocampal slices
[8] = time window, Western blot, 1 hr after treatment

O=C1Nc2ccc3ncsc3c2/C1=C/c1c[nH]cn1 [Compound C-16]
novel taste memory of 0.1% Saccharin (FIG. 8) (rats [1]; 30 min after local microinjection into the gustatory cortex, 50 μM, p<0.05): enhances novel taste memory
novel taste memory of 0.1% Saccharin (FIG. 7) (rats [1]; 2 hr after i.p. application, p<0.01, n=6): enhances novel taste memory
side effects on repeated i.p. injection (rats [2]; i.p. once a day over a period of more than 7 days, odour maze experiment): without any clear disadvantageous side effect
other effects in taste learning experiments (rats [2]; local and i.p. injection): no other effect that could be measured
eIF-2α phosphorylation in the mature hippocampus (FIG. 3) (eIF-2α; [7]): inhibited
time of return of eIF-2α phosphorylation to base line following treatment (eIF-2α; time window, Western blot): 3 to 4 h
C-16 effect on eIF-2α phosphorylation after 1 hr (eIF-2α; [8]): strong effect
odour maze learning (FIG. 11) (Sprague-Dawly male rats): enhances odour maze learning
contextual fear condition, average freezing between 4th and 7th minutes (FIG. 12) (rats [3]): enhances contextual fear condition
weak CTA (0.05M) to 0.3% NaCl (FIG. 10) (rats [4]; 30 min after local injection into the gustatory cortex, 50 μM, p<0.05): enhances weak CTA
weak Conditioned Taste Aversion (0.05M) to 0.3% NaCl (FIG. 9) (rats [4]; 2 hr after i.p. application, n=8): enhances weak Conditioned Taste Aversion
PKR kinase activity (PKR [5]): able to inhibit PKR's kinase activity
PKR phosphorylation in the mature hippocampus (FIG. 2) (PKR [6]; [7]): inhibited
time of return of PKR phosphorylation to base line following treatment (PKR [6]; time window, Western blot): 3 to 4 h
C-16 effect on PKR phosphorylation after 1 hr (PKR [6]; [8]): strong effect
